Among the data in US10968193B2, “Antidiabetic bicyclic compounds” (Merck Sharp & Dohme Corp., priority 2014, dated 2021) are EC50 values, retold here.

The target of this test is T1, human GPR40 (Homo sapiens, UniProt O14842).
T1 construct: expressed in transfected cells; host or cells: HEK cells stably expressing the aequorin reporter
Description: Inositol Phosphate Turnover (IP1) Assay 3. The test is classed as cell-based. Conditions: HEK cells stably expressing human GPR40. The method, then: Human and mouse GPR40 stable cell-lines were generated in CHO cells stably expressing NFAT BLA (Beta-lactamase). A human GPR40 stable cell-line was generated in HEK cells stably expressing the aequorin expressing reporter. The expression plasmids were transfected using lipofectamine (Life Technologies) following manufacturer's instructions. Stable cell-lines were generated following drug selection.
Inositol Phosphate Turnover (IP1) Assay 3:
The assay was performed in 384-well format. HEK cells stably expressing human GPR40 were plated at 7500 cells per well in growth medium (DMEM/10% fetal calf serum). Cell plates were then incubated 16 hours at 37 degrees in a 5% CO2 incubator.
Measurement of Inositol Phosphate Turnover (IP) was performed using the CisBio IP-One kit (Part number 62IPAPEB). After the 16 hour incubation, the growth media was removed by centrifugation using the BlueWasher (AusWasher GUI Ver. v1.0.1.8) Protocol #21—“Light Dry” and 10 ul of stimulation buffer (prepared as described in the kit) was added to each well. In a separate plate, compounds were diluted in DMSO (200-fold over the final concentration in the assay well) and 50 nl was acoustically transferred to the appropriate well in the assay cell plate. The plates were then incubated for 60 minutes at 37 degrees in a 5% CO2 incubator. 10 ul of detection buffer (also prepared as described in the IP-One kit) was added to each well and the plates were incubated at rt for 60 minutes in the dark. The plates were then read in a Perkin Elmer EnVision or equivalent reader able to measure FRET. Fluorescent ratio of emission at 665 and 620 nm was then converted to IP1 concentration by back calculating from an IP1 standard curve prepared at the time of the assay. Data is normalized to % activity using a reference compound and EC50s determined using a standard 4-parameter fit.

pEC50: −log10 of the molar value.

T1 sequence (O14842 whole entry): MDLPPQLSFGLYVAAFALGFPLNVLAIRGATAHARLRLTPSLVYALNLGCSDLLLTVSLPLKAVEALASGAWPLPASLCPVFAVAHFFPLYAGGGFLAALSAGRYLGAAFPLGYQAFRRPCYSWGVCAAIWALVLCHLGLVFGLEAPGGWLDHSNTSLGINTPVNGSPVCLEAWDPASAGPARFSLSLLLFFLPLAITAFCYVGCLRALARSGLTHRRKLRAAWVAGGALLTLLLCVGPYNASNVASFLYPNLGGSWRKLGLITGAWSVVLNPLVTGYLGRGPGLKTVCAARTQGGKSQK

For `COc1cc(-c2ccc(C3CCc4ccc([C@H](C5CC5)[C@H](C)C(=O)O)cc4O3)c(CN3[C@H](C)CC[C@H]3C)c2)ccn1` (single isomer, unassigned) [Example 116a], the pEC50 (commonly the negative decadic logarithm of the EC50, by convention in mol/L) is 8.77.

In turn, `COc1cc(-c2ccc(C3CCc4ccc([C@H](C5CC5)[C@H](C)C(=O)O)cc4O3)c(CN3[C@H](C)CC[C@H]3C)c2)ccn1` (single isomer, unassigned) [Example 116b] gave a pEC50 of 9.00.

The compound `COc1cc(-c2ccc(C3CCc4ccc([C@H](C5CC5)[C@H](C)C(=O)O)cc4O3)c(CN3[C@H](C)CC[C@H]3C)c2)ccn1` (single isomer, unassigned) [Example 116c] had a pEC50 of 6.00.

As for `COc1cc(-c2ccc(C3CCc4ccc([C@H](C5CC5)[C@H](C)C(=O)O)cc4O3)c(CN3[C@H](C)CC[C@H]3C)c2)ccn1` (single isomer, unassigned) [Example 116d], the negative-log EC50 (pEC50) was 6.41.

`COc1cc(-c2ccc(C3CCc4ccc([C@H](C5CC5)[C@H](C)C(=O)O)cc4O3)c(CN3CCCCC3(C)C)c2)ccn1` (single isomer, unassigned) [Example 117a] gave a pEC50 of 9.40.

The compound `COc1cc(-c2ccc(C3CCc4ccc([C@H](C5CC5)[C@H](C)C(=O)O)cc4O3)c(CN3CCCCC3(C)C)c2)ccn1` (single isomer, unassigned) [Example 117b] showed a pEC50 of 7.62.

With `COc1cc(-c2ccc(C3CCc4ccc([C@H](C5CC5)[C@H](C)C(=O)O)cc4O3)c(CN3CCC[C@@H]3C)c2)ccn1` (single isomer, unassigned) [Example 118a], the pEC50 is 9.22.

Consider `COc1cc(-c2ccc(C3CCc4ccc([C@H](C5CC5)[C@H](C)C(=O)O)cc4O3)c(CN3CCC[C@@H]3C)c2)ccn1` (single isomer, unassigned) [Example 118b], for which the pEC50 was 6.96.

In turn, `COc1cc(-c2ccc(C3CCc4ccc([C@H](C5CC5)[C@H](C)C(=O)O)cc4O3)c(CN3CCC[C@H]3C)c2)ccn1` (single isomer, unassigned) [Example 119a] showed a pEC50 of 6.51.

In turn, `COc1cc(-c2ccc(C3CCc4ccc([C@H](C5CC5)[C@H](C)C(=O)O)cc4O3)c(CN3CCC[C@H]3C)c2)ccn1` (single isomer, unassigned) [Example 119b] had a negative logarithm of the EC50 (pEC50) of 8.38.

For the compound `COc1cc(-c2ccc(C3CCc4ccc([C@H](C5CC5)[C@H](C)C(=O)O)cc4O3)c(CN3CCCC[C@H]3C)c2)ccn1` (single isomer, unassigned) [Example 120a], the negative logarithm of the EC50 (pEC50) was 9.40.

`COc1cc(-c2ccc(C3CCc4ccc([C@H](C5CC5)[C@H](C)C(=O)O)cc4O3)c(CN3CCCC[C@H]3C)c2)ccn1` (single isomer, unassigned) [Example 120b] had a negative logarithm of the EC50 (pEC50) of 7.39.

Take `COc1cc(-c2ccc(C3CCc4ccc([C@H](C5CC5)[C@H](C)C(=O)O)cc4O3)c(CN3[C@H](C)CC[C@@H]3C)c2)ccn1` (single isomer, unassigned) [Example 122a]: the pEC50 was 8.48.

As to `COc1cc(-c2ccc(C3CCc4ccc([C@H](C5CC5)[C@H](C)C(=O)O)cc4O3)c(CN3[C@H](C)CC[C@@H]3C)c2)ccn1` (single isomer, unassigned) [Example 122b], the negative logarithm of the EC50 (pEC50) is 6.72.

The compound `COc1cc(-c2ccc(C3CCc4ccc([C@H](C5CC5)[C@H](C)C(=O)O)cc4O3)c(CN3CCCC3)c2)c(F)cn1` (single isomer, unassigned) [Example 123a] showed a negative logarithm of the EC50 (pEC50) of 7.04.

As for `COc1cc(-c2ccc(C3CCc4ccc([C@H](C5CC5)[C@H](C)C(=O)O)cc4O3)c(CN3CCCC3)c2)c(F)cn1` (single isomer, unassigned) [Example 123b], the negative-log EC50 (pEC50) is 8.85.

Take `CCN(Cc1cc(-c2cc(OC)ncc2F)ccc1C1CCc2ccc([C@H](C3CC3)[C@H](C)C(=O)O)cc2O1)C(C)C` (single isomer, unassigned) [Example 124a]: the negative-log EC50 (pEC50) was 10.05.

Take `CCN(Cc1cc(-c2cc(OC)ncc2F)ccc1C1CCc2ccc([C@H](C3CC3)[C@H](C)C(=O)O)cc2O1)C(C)C` (single isomer, unassigned) [Example 124b]: the pEC50 is 7.80.

`COc1cc(-c2ccc(C3CCc4ccc([C@H](C5CC5)[C@H](C)C(=O)O)cc4O3)c(CN(C)C(C)(C)C)c2)c(F)cn1` (single isomer, unassigned) [Example 125a] showed a pEC50 of 9.52.

With `COc1cc(-c2ccc(C3CCc4ccc([C@H](C5CC5)[C@H](C)C(=O)O)cc4O3)c(CN(C)C(C)(C)C)c2)c(F)cn1` (single isomer, unassigned) [Example 125b], the pEC50 was 7.92.

As for `COc1cc(-c2ccc(C3CCc4ccc([C@H](C5CC5)[C@H](C)C(=O)O)cc4O3)c(CN(C(C)C)C(C)C)c2)c(F)cn1` (single isomer, unassigned) [Example 126a], the pEC50 was 10.30.

In turn, `COc1cc(-c2ccc(C3CCc4ccc([C@H](C5CC5)[C@H](C)C(=O)O)cc4O3)c(CN(C(C)C)C(C)C)c2)c(F)cn1` (single isomer, unassigned) [Example 126b] gave a negative-log EC50 (pEC50) of 8.57.

On to `COc1cc(-c2ccc(C3CCc4ccc([C@H](C5CC5)[C@H](C)C(=O)O)cc4O3)c(CN3CCCCC3(C)C)c2)c(F)cn1` (single isomer, unassigned) [Example 128a], for which the pEC50 was 10.15.

Turning to `COc1cc(-c2ccc(C3CCc4ccc([C@H](C5CC5)[C@H](C)C(=O)O)cc4O3)c(CN3CCCCC3(C)C)c2)c(F)cn1` (single isomer, unassigned) [Example 128b], the pEC50 was 8.92.

As for `COc1cc(-c2ccc(C3CCc4ccc([C@H](C5CC5)[C@H](C)C(=O)O)cc4O3)c(CN3CCC[C@@H]3C)c2)c(F)cn1` (single isomer, unassigned) [Example 129a], the pEC50 was 9.60.

In turn, `COc1cc(-c2ccc(C3CCc4ccc([C@H](C5CC5)[C@H](C)C(=O)O)cc4O3)c(CN3CCC[C@@H]3C)c2)c(F)cn1` (single isomer, unassigned) [Example 129b] gave a pEC50 of 7.44.

In turn, `COc1cc(-c2ccc(C3CCc4ccc([C@H](C5CC5)[C@H](C)C(=O)O)cc4O3)c(CN3CCCC[C@H]3C)c2)c(F)cn1` (single isomer, unassigned) [Example 130a] had a pEC50 of 8.06.

`COc1cc(-c2ccc(C3CCc4ccc([C@H](C5CC5)[C@H](C)C(=O)O)cc4O3)c(CN3CCCC[C@H]3C)c2)c(F)cn1` (single isomer, unassigned) [Example 130b]: the negative-log EC50 (pEC50) was 10.22.

Consider `CCOc1cc(-c2ccc(C3CCc4ccc([C@H](C5CC5)[C@H](C)C(=O)O)cc4O3)c(CN(C)C(C)(C)C)c2)c(F)cn1` (single isomer, unassigned) [Example 132a], for which the pEC50 was 8.74.

Consider `CCOc1cc(-c2ccc(C3CCc4ccc([C@H](C5CC5)[C@H](C)C(=O)O)cc4O3)c(CN(C)C(C)(C)C)c2)c(F)cn1` (single isomer, unassigned) [Example 132b], for which the negative logarithm of the EC50 (pEC50) is 6.97.

Take `CCOc1cc(-c2ccc(C3CCc4ccc([C@H](C5CC5)[C@H](C)C(=O)O)cc4O3)c(CN3CCC[C@@H]3C)c2)c(F)cn1` (single isomer, unassigned) [Example 133]: the pEC50 is 9.10.
